Data as given in PMC10541198, “Specific quinone reductase 2 inhibitors reduce metabolic burden and reverse Alzheimer’s disease phenotype in mice” (The Journal of Clinical Investigation, 2023).
Where “and” joins values, the source holds several entries; their conditions need not be identical. Identical values can stand only once.

Tests used:
QR2 expressed in HEK293T = biological target: T1, QR2 expressed in HEK293T (Homo sapiens, UniProt P16083); experiment: Cellular thermal shift assay (CETSA; Tagg curves and ITDRF); assay type: cell-based; conditions: 73°C; for EC50: n = 3, read-out: EC50, isothermal dose-response of QR2 stabilization; for QR2 stabilization signal, ITDRF (replicates): log[Inhibitor]
T1 construct: endogenous in cells; host or cells: HEK293T
T1 sequence (P16083 1-231): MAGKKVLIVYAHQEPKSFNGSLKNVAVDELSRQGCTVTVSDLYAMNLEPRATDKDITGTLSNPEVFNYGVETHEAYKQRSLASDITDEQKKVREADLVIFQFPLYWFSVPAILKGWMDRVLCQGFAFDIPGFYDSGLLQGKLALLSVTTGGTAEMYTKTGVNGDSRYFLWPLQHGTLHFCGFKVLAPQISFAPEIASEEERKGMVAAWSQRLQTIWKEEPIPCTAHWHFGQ
Protocol: (§1) To establish direct target engagement and cell membrane permeability, a cellular thermal shift assay (CETSA) was carried out, using leading QR2is YB’s-537, 800, and 808. Following a 1 hour preincubation with 5 μM of the QR2is or vehicle, thermal aggregation curves (Taggs) of QR2 expressed in HEK293T were measured in increasing temperatures. All QR2is increased QR2 thermal stability compared with vehicle (Supplemental Figure 2A). Based on the Tagg curves we selected 73°C for isothermal dose-response fingerprint (IDTRF) experiments (Supplemental Figure 2B). The ITDRF allowed the relative quantification of the binding of each of the QR2is to QR2, measured as the EC50 (Figure 3A). […] We evaluated the safety of the QR2is using cell toxicity and viability assays. […] Cell viability was assessed by XTT assay in HEK239T cells, using a dose response, with 3- or 24-hour incubations of the leading QR2is. No sign of toxicity was seen (Figure 3C). Next, we wanted to assess if, similar to QR2 KO, QR2is can reduce cellular ROS in HCT116 cells and see whether any observable effect is occluded in QR2Δ cells. […] We then assessed WT HCT116 cells by immunoblot (Supplemental Figure 2, C and D), after being treated with YB-800 (2 μM) for 4 consecutive days.
(§2) H2DCFDA ROS assay was carried out according to established protocols, with some adjustment (Supplemental Methods) ([6]). Cell toxicity was measured via ATP depletion (CellTiter Glo, Promega) in THLE-2 cells (ATCC, CRL-2706), following 72 hours of exposure to the test compounds, and cell viability was assessed using XTT assay (Biological Industries) according to manufacturers protocols. CETSA was performed as previously described ([53]) with some modifications, using QR2 (Santa Cruz, sc-271665) and SOD1 (Santa Cruz, sc-17767) antibodies. SDS-PAGE and immunoblot imaging were carried out as previously described ([55]), using Tubulin (Sigma-Aldrich, SAB4500087), QR2 (Santa Cruz, sc-271665), NDUFA9 (AbCam, ab14713) and CD73 (Cell Signaling Technology, D7F9A) antibodies. […]
(§3) HEK293FT cells were cultured with penicillin- streptomycin antibiotics in Invitrogen DMEM (Thermo
(§4) Fisher Scientific) with 10% fetal bovine serum a nd L -glutamine, and grown to 80-90% confluence in 100
mm plates, while being passaged every 2–3 d. […]
Cellular The rm a l Shift Assay (CETSA)
The CETSA assay was performed as described(54) with some modifications. Bri efl y, HEK293T cel ls wer e
trypsinized (Biological Indust ri es), washed in PBS (Sigma-Aldrich) and then suspended in PBS containing
protease inhibitor cocktail (Roche). The suspended cells were then divided into two Eppendorf tubes and
were treated with either compound or DMSO (Sigma-Aldrich) for 1h at 37 °C with shaking. Following
treatment, each sample was divided into PCR tubes (100µL/tube) and subjected to a temperature gradient
(ranging fr om 63 to 80 °C) for 3 minutes. Cell lysates we r e obtained by 3- cycles of freeze- t ha w using li qui d
nitrogen and a thermal bl ock set to 25 °C. Samples were then centrifuged at 15,000rpm at 4 °C f or 20min a nd
were subsequently analyzed by Western Blot of QR2 (1:100, Santa Cruz; sc-271665). The isothermal
concentration response fingerprint (ITDRF) experiments were done using a constant temperature of 73 °C.
Band intensities were normalized to the highest concentration and SOD1 levels (1:200, Santa Cruz; sc -
(§5) 17767). Analysis of the results wer e done in accordance to Jafari et a l .( 63) us i ng GraphPad Pr i sm software.

HEK293 cells = experiment: XTT cell viability assay; assay type: cell-based; conditions: in % (unit assumed)
Protocol: as §1, §2, §3, §4
mm plates, while being passaged every 2–3 d. For the XTT assay (Biological Industries), cells were then
collected, centrifuged, and resuspended in fresh Minimum Essential Medium, and seeded at 50,000
cells/well in 96-well, poly- L-lysine-coated Nunc black, clear flat-bottomed plates (Thermo Fisher
Scientific). The next day, the cells were treated with increasing doses of QR2 inhibitors or vehicle f or 3 h,
and the XTT assay was then carried out as per the manufacturer’s instructions.
Cellular The rm a l Shift Assay (CETSA) […]
as §5

Compound	EC50 (QR2 expressed in HEK293T) [nM]	QR2 stabilization signal, ITDRF (replicates) (QR2 expressed in HEK293T; M -5)	QR2 stabilization signal, ITDRF (replicates) (QR2 expressed in HEK293T; M -5.6)	QR2 stabilization signal, ITDRF (replicates) (QR2 expressed in HEK293T; M -5.9)	QR2 stabilization signal, ITDRF (replicates) (QR2 expressed in HEK293T; M -6.2)	QR2 stabilization signal, ITDRF (replicates) (QR2 expressed in HEK293T; M -6.5)	QR2 stabilization signal, ITDRF (replicates) (QR2 expressed in HEK293T; M -6.8)	QR2 stabilization signal, ITDRF (replicates) (QR2 expressed in HEK293T; M -7.1)	QR2 stabilization signal, ITDRF (replicates) (QR2 expressed in HEK293T; M -7.4)	QR2 stabilization signal, ITDRF (replicates) (QR2 expressed in HEK293T; M -7.7)	QR2 stabilization signal, ITDRF (replicates) (QR2 expressed in HEK293T; M -8)	QR2 stabilization signal, ITDRF (replicates) (QR2 expressed in HEK293T; M -9)	cell viability, XTT (replicates) (HEK293 cells; 3h, inhibitor 2e-8 M)	cell viability, XTT (replicates) (HEK293 cells; 3h, inhibitor 2e-7 M)	cell viability, XTT (replicates) (HEK293 cells; 3h, inhibitor 2e-6 M)	cell viability, XTT (replicates) (HEK293 cells; 3h, inhibitor 2e-5 M)	cell viability, XTT (replicates) (HEK293 cells; 24h, inhibitor 2e-8 M)	cell viability, XTT (replicates) (HEK293 cells; 24h, inhibitor 2e-7 M)	cell viability, XTT (replicates) (HEK293 cells; 24h, inhibitor 2e-6 M)	cell viability, XTT (replicates) (HEK293 cells; 24h, inhibitor 2e-5 M)
Cc1ccc(-c2cn3cccc(C)c3n2)cc1S(=O)(=O)N1CCNCC1 [YB-537]	129	8037 and 7667	10469 and 7617 and 6857	10266 and 7463 and 6486	8878 and 6878 and 4582	6804 and 5633	3383 and 3296 and 2262	1653 and 1901 and 1028	762 and 749 and 458	410 and 416	212 and 226 and 182	110 and 98 and 105	94.7 and 105.7 and 95.0 and 97.1	97.9 and 102.5 and 95.0 and 99.0	99.1 and 104.8 and 106.5 and 98.8	94.7 and 101.0 and 104.9 and 96.7	105.3 and 102.1 and 104.1	107.4 and 101.8 and 105.2	109.0 and 101.0 and 104.0	106.0 and 97.3 and 109.2
Cc1ccc(-c2cn3cccc(C)c3n2)cc1S(=O)(=O)N1CCC(C)CC1 [YB-800]	34	4070 and 3736	4506 and 4561 and 4867	4786 and 3969 and 5175	5056 and 3732 and 5224	4815 and 4201 and 4200	4651 and 3683 and 3564	3508 and 2203 and 2700	2230 and 1871 and 2017	1054 and 942 and 1103	655 and 480 and 469	36 and 24 and 14	110.8 and 103.7 and 108.0 and 102.4	102.8 and 101.2 and 105.3 and 105.6	102.2 and 105.1 and 102.6 and 106.5	89.7 and 90.4 and 98.2 and 92.7	107.0 and 100.8 and 108.4	107.9 and 100.0 and 108.0	108.3 and 101.8 and 109.9	104.0 and 96.6 and 104.9
Cc1ccc(-c2cn3cccc(C)c3n2)cc1S(=O)(=O)N1CCCC1 [YB-808]	13	11691 and 8388 and 13855	12608 and 8899 and 18621	7977 and 16388	13431 and 8528 and 16152	13807 and 8233 and 15986	13304 and 17220	11995 and 8077 and 17779	9109 and 4692 and 13840	6837 and 3416 and 9444	2555 and 1788 and 4021	121 and 492 and 263	99.9 and 101.4 and 100.9 and 104.5	95.8 and 94.0 and 100.4 and 100.6	96.9 and 89.9 and 98.4 and 94.4	97.3 and 87.1 and 95.7 and 85.1	106.1 and 99.4 and 100.6	106.1 and 98.5 and 96.2	103.5 and 93.6 and 93.8	95.3 and 93.6 and 96.9
